ChEMBL document CHEMBL2074204, “The endothelin antagonist bosentan inhibits the canalicular bile salt export pump: a potential mechanism for hepatic adverse reactions” (Clin Pharmacol Ther, 2001)

Molecular target: T1, Bile salt export pump (Rattus norvegicus, UniProt O70127)
T1 sequence (O70127 whole entry): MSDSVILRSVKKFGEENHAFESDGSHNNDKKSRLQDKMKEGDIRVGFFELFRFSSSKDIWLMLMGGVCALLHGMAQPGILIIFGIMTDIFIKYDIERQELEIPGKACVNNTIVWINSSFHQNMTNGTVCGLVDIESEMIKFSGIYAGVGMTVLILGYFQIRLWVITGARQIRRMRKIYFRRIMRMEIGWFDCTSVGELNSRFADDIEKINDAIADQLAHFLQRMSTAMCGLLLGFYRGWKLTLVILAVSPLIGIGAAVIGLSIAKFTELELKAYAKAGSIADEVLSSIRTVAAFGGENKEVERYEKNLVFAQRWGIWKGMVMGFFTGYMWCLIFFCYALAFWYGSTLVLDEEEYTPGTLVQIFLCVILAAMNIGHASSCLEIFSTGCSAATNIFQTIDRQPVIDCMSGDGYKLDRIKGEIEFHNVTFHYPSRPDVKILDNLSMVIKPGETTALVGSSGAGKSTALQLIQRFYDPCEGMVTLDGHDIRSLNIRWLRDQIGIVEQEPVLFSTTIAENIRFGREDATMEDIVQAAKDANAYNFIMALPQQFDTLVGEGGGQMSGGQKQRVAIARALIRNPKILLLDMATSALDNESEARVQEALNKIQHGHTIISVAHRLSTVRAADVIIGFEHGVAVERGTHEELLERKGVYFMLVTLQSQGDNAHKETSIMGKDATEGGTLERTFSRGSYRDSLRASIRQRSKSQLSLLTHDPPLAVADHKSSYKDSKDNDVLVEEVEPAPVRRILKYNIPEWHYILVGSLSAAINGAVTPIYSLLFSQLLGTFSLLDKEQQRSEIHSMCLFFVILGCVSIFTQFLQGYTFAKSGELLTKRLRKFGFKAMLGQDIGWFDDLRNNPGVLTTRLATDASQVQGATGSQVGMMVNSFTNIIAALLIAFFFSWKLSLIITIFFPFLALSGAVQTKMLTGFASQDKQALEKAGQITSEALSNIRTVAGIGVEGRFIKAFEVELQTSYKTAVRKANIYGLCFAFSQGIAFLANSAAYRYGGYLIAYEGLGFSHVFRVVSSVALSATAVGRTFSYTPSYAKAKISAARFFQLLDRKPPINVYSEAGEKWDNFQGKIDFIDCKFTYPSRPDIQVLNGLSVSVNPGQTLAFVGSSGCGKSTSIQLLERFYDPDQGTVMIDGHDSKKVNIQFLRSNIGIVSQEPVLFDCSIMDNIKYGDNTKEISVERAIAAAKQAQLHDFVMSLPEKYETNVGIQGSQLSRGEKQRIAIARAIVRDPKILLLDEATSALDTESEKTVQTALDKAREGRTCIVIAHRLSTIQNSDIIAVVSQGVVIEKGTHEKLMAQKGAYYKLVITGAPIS
Test: TP_TRANSPORTER: inhibition of Taurocholate uptake in membrane vesicle from Bsep-expressing Sf9-cell
Format: functional, cell membranes

Compound | Ki [µM]
COc1ccccc1Oc1c(NS(=O)(=O)c2ccc(C(C)(C)C)cc2)nc(-c2ncccn2)nc1OCCO [BOSENTAN] | 12
CC(C)(C)c1ccc(S(=O)(=O)Nc2nc(-c3ncccn3)nc(OCCO)c2Cc2ccccc2O)cc1 [BOSENTAN M2] | 8.5
